Experimental data published in ChEMBL document CHEMBL1201862, “PubChem BioAssay data set” (2004).
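A five-concentration, 48-hour dose response in 96-well plates underlies each endpoint, interpolated linearly between surrounding concentrations. GI50 marks 50% less growth.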 Calls of active or inactive are those of the source. No stated cut-off is given here; in the data, active = GI50 up to about 1.1 µM and inactive = higher.

Tests used:
Experiment in all cases: NCI anticancer screen, dose series, 48 h
BT-549 = tested on: BT-549
CAKI-1 = tested on: CAKI-1
COLO 205 = tested on: COLO 205
EKVX = tested on: EKVX
HCC 2998 = tested on: HCC 2998
HCT-15 = tested on: HCT-15
Hs-578T = tested on: Hs-578T
KM12 = tested on: KM12
LOX IMVI = tested on: LOX IMVI
MCF7 = tested on: MCF7
MDA-MB-231 = tested on: MDA-MB-231
MOLT-4 = tested on: MOLT-4
NCI-H460 = tested on: NCI-H460
OVCAR-4 = tested on: OVCAR-4
SK-MEL-28 = tested on: SK-MEL-28
SW-620 = tested on: SW-620
T47D = tested on: T47D
U-251 = tested on: U-251
UACC-257 = tested on: UACC-257

Measured: GI50

CCCC(c1cc(C(C)(C)C)c(O)cc1C)c1cc(C(C)(C)C)c(O)cc1C
3.35 µM: HCT-15
inactive: BT-549 9.79 µM | CAKI-1 4.3 µM | COLO 205 2.33 µM | EKVX 2.88 µM | HCC 2998 1.75 µM | Hs-578T 2.79 µM | KM12 3.32 µM | LOX IMVI 1.87 µM | MCF7 2.06 µM | MDA-MB-231 3.56 µM | MOLT-4 2.16 µM | NCI-H460 1.95 µM | OVCAR-4 5.13 µM | SK-MEL-28 3.48 µM | SW-620 3.23 µM | T47D 2.56 µM | U-251 2.65 µM | UACC-257 2.31 µM

O=C1C(Cl)=C(N2CCN(c3ccccn3)CC2)C(=O)c2ncccc21
inactive: BT-549 1.79 µM | CAKI-1 2.13 µM | COLO 205 1.84 µM | EKVX 11.9 µM | HCC 2998 16.7 µM | Hs-578T 2.49 µM | KM12 3.53 µM | LOX IMVI 1.61 µM | MCF7 1.67 µM | MDA-MB-231 1.69 µM | MOLT-4 1.38 µM | NCI-H460 3.05 µM | OVCAR-4 1.87 µM | SK-MEL-28 2.24 µM | SW-620 2.03 µM | T47D 1.81 µM | U-251 4.38 µM | UACC-257 1.7 µM
1.66 µM: HCT-15

C[C@H](CCc1nc(C#N)c(N)o1)[C@H]1CC[C@H]2[C@@H]3[C@@H](O)CC4C[C@@H](O)CC[C@]4(C)[C@H]3C[C@@H](O)[C@]12C (stereo partly specified)
48.3 µM: HCT-15
inactive: BT-549 9.86 µM | CAKI-1 30.5 µM | COLO 205 18.2 µM | EKVX 28.3 µM | HCC 2998 19.1 µM | Hs-578T 20.5 µM | KM12 17.7 µM | LOX IMVI 12.1 µM | MCF7 33.1 µM | MDA-MB-231 25.6 µM | MOLT-4 15 µM | NCI-H460 21.9 µM | OVCAR-4 1.99 µM | SK-MEL-28 25.6 µM | SW-620 23.5 µM | T47D 27.5 µM | U-251 20.7 µM | UACC-257 19.7 µM

O=C1CC(c2ccco2)C2(C(=O)NC(=O)NC2=O)C(c2ccco2)C1 (stereo unspecified)
> 75 µM: HCT-15
inactive: BT-549 > 75 µM | CAKI-1 > 75 µM | COLO 205 > 75 µM | EKVX > 75 µM | HCC 2998 > 75 µM | Hs-578T > 75 µM | KM12 > 75 µM | LOX IMVI > 75 µM | MCF7 > 75 µM | MDA-MB-231 > 75 µM | MOLT-4 > 75 µM | NCI-H460 > 75 µM | OVCAR-4 > 75 µM | SK-MEL-28 > 75 µM | SW-620 > 75 µM | T47D > 75 µM | U-251 > 75 µM | UACC-257 > 75 µM

C/C(=N\NC(=S)NC(C)C)c1nc2cccnc2[nH]1
active: T47D 0.33 µM
inactive: BT-549 15.5 µM | CAKI-1 18.2 µM | COLO 205 11 µM | EKVX 13.5 µM | HCC 2998 19.4 µM | Hs-578T 23.9 µM | KM12 65.8 µM | LOX IMVI 30.2 µM | MCF7 21.9 µM | MDA-MB-231 > 26.7 µM | MOLT-4 9.95 µM | NCI-H460 14 µM | OVCAR-4 6.15 µM | SK-MEL-28 > 100 µM | SW-620 12.1 µM | U-251 21.3 µM | UACC-257 34.6 µM
11.3 µM: HCT-15

CC1(C)C2C=C(CCN3CCOCC3)CC1C2 (stereo unspecified)
inactive: BT-549 > 100 µM | CAKI-1 > 100 µM | COLO 205 > 100 µM | EKVX > 100 µM | HCC 2998 > 100 µM | Hs-578T > 100 µM | KM12 > 100 µM | LOX IMVI > 100 µM | MCF7 > 100 µM | MDA-MB-231 > 100 µM | MOLT-4 > 100 µM | NCI-H460 > 100 µM | OVCAR-4 > 100 µM | SK-MEL-28 > 100 µM | SW-620 > 100 µM | T47D > 100 µM | U-251 > 100 µM | UACC-257 > 100 µM
> 100 µM: HCT-15

COC(=O)[C@]12CCC(=O)N1[C@H](C(=O)O)Cc1c2[nH]c2ccccc12
> 100 µM: HCT-15
inactive: BT-549 > 100 µM | CAKI-1 > 100 µM | COLO 205 > 100 µM | EKVX > 100 µM | HCC 2998 > 100 µM | Hs-578T > 100 µM | KM12 > 100 µM | LOX IMVI > 100 µM | MCF7 > 100 µM | MDA-MB-231 > 100 µM | MOLT-4 > 100 µM | NCI-H460 > 100 µM | OVCAR-4 > 100 µM | SK-MEL-28 > 100 µM | SW-620 > 100 µM | T47D > 100 µM | U-251 > 100 µM | UACC-257 > 100 µM

C[C@H]1C=C2[C@@H]3CC(C)(C(=O)O)CC[C@]3(C)CC[C@]2(C)[C@]2(C)CC[C@H]3C(C)(C)[C@@H](OC(=O)c4cccc5c(=O)c6ccccc6[nH]c45)CC[C@]3(C)[C@@H]12 (stereo partly specified)
> 100 µM: HCT-15
inactive: BT-549 47.8 µM | CAKI-1 > 100 µM | COLO 205 58.1 µM | EKVX > 100 µM | HCC 2998 88.7 µM | Hs-578T > 100 µM | KM12 37.2 µM | LOX IMVI 57 µM | MCF7 40 µM | MDA-MB-231 > 100 µM | MOLT-4 > 100 µM | NCI-H460 41 µM | OVCAR-4 80.4 µM | SK-MEL-28 53.3 µM | SW-620 > 100 µM | T47D 26.9 µM | U-251 81.5 µM | UACC-257 29.7 µM

COc1ncc(C#CC(=O)c2ccccc2)c(OC)n1
1.37 µM: HCT-15
inactive: BT-549 2.17 µM | CAKI-1 2.76 µM | COLO 205 1.99 µM | EKVX 3.51 µM | HCC 2998 6.12 µM | Hs-578T 24.5 µM | KM12 6.85 µM | MDA-MB-231 1.95 µM | NCI-H460 13.4 µM | OVCAR-4 4.7 µM | SK-MEL-28 5.11 µM | SW-620 1.63 µM | T47D 5.83 µM | U-251 4.71 µM | UACC-257 5.64 µM
active: LOX IMVI 0.815 µM | MCF7 0.378 µM | MOLT-4 0.679 µM

COc1cc(-c2oc(/C=N/c3ccccc3)c([N+](=O)[O-])c2-c2ccc(O)c(OC)c2)ccc1O
14.4 µM: HCT-15
inactive: BT-549 29.6 µM | CAKI-1 21.8 µM | COLO 205 20.3 µM | EKVX 25.8 µM | HCC 2998 15 µM | Hs-578T 39.6 µM | KM12 21.7 µM | LOX IMVI 9.57 µM | MCF7 23.9 µM | MDA-MB-231 27.5 µM | MOLT-4 12.2 µM | NCI-H460 16.1 µM | OVCAR-4 19.1 µM | SK-MEL-28 19.5 µM | SW-620 22.9 µM | T47D 38.9 µM | U-251 23.4 µM | UACC-257 27 µM

CN(C)c1ccc(/C=C/C(=O)c2cc(C(C)(C)C)c(O)c(C(C)(C)C)c2)cc1
inactive: BT-549 3.64 µM | CAKI-1 1.14 µM | HCC 2998 1.64 µM | Hs-578T 2.72 µM | LOX IMVI 2.06 µM | MDA-MB-231 2.44 µM | MOLT-4 3.85 µM | OVCAR-4 1.98 µM | SK-MEL-28 > 60 µM | T47D 4.06 µM
1.15 µM: HCT-15
active: COLO 205 0.348 µM | EKVX 0.583 µM | KM12 0.641 µM | MCF7 0.469 µM | NCI-H460 0.82 µM | SW-620 0.986 µM | U-251 0.946 µM | UACC-257 0.321 µM

O=C(O)C1=NN(c2ccc(S(=O)(=O)O)cc2)C2(C1)SCC(=O)N2c1nc2ccccc2s1 (stereo unspecified)
> 100 µM: HCT-15
inactive: BT-549 > 100 µM | CAKI-1 > 100 µM | COLO 205 > 100 µM | EKVX > 100 µM | HCC 2998 > 100 µM | Hs-578T > 100 µM | KM12 > 100 µM | LOX IMVI > 100 µM | MCF7 > 100 µM | MDA-MB-231 > 100 µM | MOLT-4 > 100 µM | NCI-H460 > 100 µM | OVCAR-4 > 100 µM | SK-MEL-28 > 100 µM | SW-620 > 100 µM | T47D > 100 µM | U-251 > 100 µM | UACC-257 > 100 µM

Cc1cc(=O)oc2cc(OC(=O)N(CCCl)CCCl)ccc12
77.6 µM: HCT-15
inactive: BT-549 44.7 µM | CAKI-1 > 100 µM | COLO 205 > 100 µM | EKVX > 100 µM | HCC 2998 > 100 µM | Hs-578T > 100 µM | KM12 > 100 µM | LOX IMVI 59.8 µM | MCF7 > 100 µM | MDA-MB-231 > 100 µM | MOLT-4 82.6 µM | NCI-H460 > 100 µM | OVCAR-4 > 100 µM | SK-MEL-28 > 100 µM | SW-620 > 100 µM | T47D 62.4 µM | U-251 > 100 µM | UACC-257 > 100 µM

O=C(O)/C=c1/c2ccccc2n2nc3ccccc3c12
inactive: BT-549 37.4 µM | CAKI-1 37.3 µM | COLO 205 17.2 µM | EKVX 37.1 µM | HCC 2998 24.1 µM | Hs-578T 23.6 µM | KM12 20.4 µM | LOX IMVI 21.9 µM | MCF7 35.2 µM | MDA-MB-231 39.1 µM | MOLT-4 23 µM | NCI-H460 30.1 µM | OVCAR-4 22.8 µM | SK-MEL-28 26 µM | SW-620 35.6 µM | T47D 55.5 µM | U-251 33.6 µM | UACC-257 20.9 µM
26.8 µM: HCT-15
